Test results from patent publication US10214519B2, “Phosphatidylinositol 3-kinase inhibitors” (Gilead Sciences, Inc., priority 2016, dated 2019).

biological target: PI3Kβ (Homo sapiens (Human), UniProt P42338); assay: PI3K isoform TR-FRET enzymatic assay (PI3Kβ); assay type: biochemical; conditions: 2× Km ATP, 30 minutes at 25° C.
In short: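 Heterodimeric recombinant PI3Kβ was incubated with compound 30 minutes at 25° C. Product was detected by TR-FRET competition with 10 nM labeled PIP3 for 35 nM Eu-GRP-1 PH domain after EDTA stop. Data were normalized to 1 μM wortmannin and DMSO, and IC50 was taken from a four-parameter fit.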

Sequence of PI3Kβ (P42338 whole entry, the tested form may be a part, canonical isoform): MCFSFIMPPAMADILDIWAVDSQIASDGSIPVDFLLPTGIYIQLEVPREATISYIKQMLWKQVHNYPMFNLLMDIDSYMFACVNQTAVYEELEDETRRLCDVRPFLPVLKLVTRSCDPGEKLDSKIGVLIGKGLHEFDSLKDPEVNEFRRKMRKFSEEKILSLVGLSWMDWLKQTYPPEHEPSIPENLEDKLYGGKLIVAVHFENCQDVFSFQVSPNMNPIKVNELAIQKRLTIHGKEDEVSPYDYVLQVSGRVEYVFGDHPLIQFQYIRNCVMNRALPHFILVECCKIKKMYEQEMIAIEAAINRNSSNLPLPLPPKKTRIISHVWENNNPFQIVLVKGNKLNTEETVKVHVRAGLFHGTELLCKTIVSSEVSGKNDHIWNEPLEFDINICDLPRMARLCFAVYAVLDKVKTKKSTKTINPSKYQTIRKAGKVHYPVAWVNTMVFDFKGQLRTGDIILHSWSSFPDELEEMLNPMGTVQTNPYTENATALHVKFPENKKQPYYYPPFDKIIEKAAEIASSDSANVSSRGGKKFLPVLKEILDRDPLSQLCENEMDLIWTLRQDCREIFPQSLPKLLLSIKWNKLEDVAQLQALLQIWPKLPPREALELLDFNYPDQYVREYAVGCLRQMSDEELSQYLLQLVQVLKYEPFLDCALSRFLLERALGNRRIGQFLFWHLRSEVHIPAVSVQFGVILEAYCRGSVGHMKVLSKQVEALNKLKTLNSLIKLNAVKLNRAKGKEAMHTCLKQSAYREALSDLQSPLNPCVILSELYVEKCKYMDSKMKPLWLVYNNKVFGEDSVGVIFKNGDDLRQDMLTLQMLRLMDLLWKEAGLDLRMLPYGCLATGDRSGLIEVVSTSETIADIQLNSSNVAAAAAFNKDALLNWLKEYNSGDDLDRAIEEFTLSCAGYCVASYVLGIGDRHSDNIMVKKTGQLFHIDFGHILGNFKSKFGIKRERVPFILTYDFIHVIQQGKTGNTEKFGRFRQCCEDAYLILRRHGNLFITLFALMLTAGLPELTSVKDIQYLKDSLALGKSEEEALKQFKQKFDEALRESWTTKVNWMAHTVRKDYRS
Sequence of PI3Kβ (P27986 whole entry partner, the tested form may be a part, canonical isoform): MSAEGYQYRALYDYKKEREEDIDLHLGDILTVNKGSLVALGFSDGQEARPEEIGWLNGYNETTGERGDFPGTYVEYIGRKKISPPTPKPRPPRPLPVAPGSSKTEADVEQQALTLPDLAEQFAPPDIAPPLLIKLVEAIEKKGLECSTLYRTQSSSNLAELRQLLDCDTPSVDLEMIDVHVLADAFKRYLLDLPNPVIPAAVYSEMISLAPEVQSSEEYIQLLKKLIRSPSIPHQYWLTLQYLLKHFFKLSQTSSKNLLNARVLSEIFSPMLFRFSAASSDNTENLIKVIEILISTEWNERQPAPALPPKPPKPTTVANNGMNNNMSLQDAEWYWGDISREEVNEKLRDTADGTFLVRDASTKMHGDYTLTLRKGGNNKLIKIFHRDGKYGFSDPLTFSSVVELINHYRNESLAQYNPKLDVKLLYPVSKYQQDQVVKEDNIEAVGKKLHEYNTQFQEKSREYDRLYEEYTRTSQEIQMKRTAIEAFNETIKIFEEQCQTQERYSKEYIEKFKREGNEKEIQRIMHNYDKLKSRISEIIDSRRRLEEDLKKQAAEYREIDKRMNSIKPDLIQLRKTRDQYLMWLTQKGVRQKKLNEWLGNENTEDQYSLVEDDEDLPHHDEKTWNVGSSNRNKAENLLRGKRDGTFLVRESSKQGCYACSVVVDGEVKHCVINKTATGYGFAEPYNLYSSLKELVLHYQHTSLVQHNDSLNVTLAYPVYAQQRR

Going from Clc1cccc2c(-n3c(CC4CC4)nc4c(-c5ncco5)cc(N5CCOCC5)cc43)ccnc12 [Example 220, 4-[3-(8-chloroquinolin-4-yl)-2-(cyclopropylmethyl)-7-(1,3-oxazol-2-yl)benzimidazol-5-yl]morpholine] to Fc1cccc2c(-n3c(CC4CC4)nc4c(-c5ncco5)cc(N5CCOCC5)cc43)ccnc12 [Example 225, 4-[2-(cyclopropylmethyl)-3-(8-fluoroquinolin-4-yl)-7-(1,3-oxazol-2-yl)benzimidazol-5-yl]morpholine], the IC50 rises from 7 nM to 18 nM (2.6-fold). The first is the more potent here.

Fc1ccc(F)c2c(-n3c(CC4CC4)nc4c(-c5ncco5)cc(N5CCOCC5)cc43)ccnc12 [Example 221, 4-[2-(cyclopropylmethyl)-3-(5,8-difluoroquinolin-4-yl)-7-(1,3-oxazol-2-yl)benzimidazol-5-yl]morpholine] and Fc1ccc(F)c2c(-n3c(C4CC4)nc4c(-c5ncco5)cc(N5CCOCC5)cc43)ccnc12 [Example 231, 4-[2-cyclopropyl-3-(5,8-difluoroquinolin-4-yl)-7-(1,3-oxazol-2-yl)benzimidazol-5-yl]morpholine] are within 1.5-fold of each other in IC50: 11 nM for the first, 16 nM for the second.

CCCc1nc2c(-c3ncco3)cc(N3CCOCC3)cc2n1-c1ccnc2c(Cl)cc(F)cc12 [Example 222, 4-[3-(8-chloro-6-fluoroquinolin-4-yl)-7-(1,3-oxazol-2-yl)-2-propylbenzimidazol-5-yl]morpholine] and CCCc1nc2c(-c3ncco3)cc(N3CCOCC3)cc2n1-c1ccnc2c(Cl)cccc12 [Example 227, 4-[3-(8-chloroquinolin-4-yl)-7-(1,3-oxazol-2-yl)-2-propylbenzimidazol-5-yl]morpholine] are within 1.5-fold of each other in IC50: 12 nM for the first, 10 nM for the second.

CCCc1nc2c(-c3ncco3)cc(N3CCOCC3)cc2n1-c1ccnc2c(F)cccc12 [Example 223, 4-[3-(8-fluoroquinolin4-yl)-7-(1,3-oxazol-2-yl)-2-propylbenzimidazol-5-yl]morpholine] and CCCc1nc2c(-c3ncco3)cc(N3CCOCC3)cc2n1-c1ccnc2c(F)ccc(F)c12 [Example 230, 4-(1-(5,8-difluoroquinolin-4-yl)-4-(oxazol-2-yl)-2-propyl-1H-benzo[d]imidazol-6-yl)morpholine] are within 1.5-fold of each other in IC50: 9 nM for the first, 7 nM for the second.

Compared with Clc1cccc2c(-n3cnc4c(-c5ncco5)cc(N5CCOCC5)cc43)ccnc12 [Example 224, 4-[3-(8-chloroquinolin-4-yl)-7-(1,3-oxazol-2-yl)benzimidazol-5-yl]morpholine], CCc1nc2c(-c3ncco3)cc(N3CCOCC3)cc2n1-c1ccnc2c(Cl)cccc12 [Example 226, 4-[3-(8-chloroquinolin4-yl)-2-ethyl-7-(1,3-oxazol-2-yl)benzimidazol-5-yl]morpholine] is 1.7-fold higher in IC50: 3 nM for the first, 5 nM for the second. The first is the more potent here.

First: Clc1cccc2c(-n3c(C4CC4)nc4c(-c5ncco5)cc(N5CCOCC5)cc43)ccnc12 [Example 228, 4-[3-(8-chloroquinolin-4-yl)-2-cyclopropyl-7-(1,3-oxazol-2-yl)benzimidazol-5-yl]morpholine]
Second: Fc1ccc(Cl)c2nccc(-n3c(C4CC4)nc4c(-c5ncco5)cc(N5CCOCC5)cc43)c12 [Example 242, 4-[3-(8-chloro-5-fluoroquinolin-4-yl)-2-cyclopropyl-7-(1,3-oxazol-2-yl)benzimidazol-5-yl]morpholine]
The IC50 of the first is 1.7-fold higher: 10 nM for the first, 6 nM for the second.

Cc1nc2c(-c3ncco3)cc(N3CCOCC3)cc2n1-c1ccnc2c(F)ccc(F)c12 [Example 229, 4-[3-(5,8-difluoroquinolin-4-yl)-2-methyl-7-(1,3-oxazol-2-yl)benzimidazol-5-yl]morpholine] and Fc1ccc(F)c2c(-n3cnc4c(-c5ncco5)cc(N5CCOCC5)cc43)ccnc12 [Example 236, 4-[3-(5,8-difluoroquinolin-4-yl)-7-(1,3-oxazol-2-yl)benzimidazol-5-yl]morpholine] are the same in IC50: 5 nM for the first, 5 nM for the second.

Going from CCc1nc2c(-c3nc(C)cs3)cc(N3CCOCC3)cc2n1-c1ccnc2c(F)cccc12 [Example 232, 4-[2-ethyl-3-(8-fluoroquinolin-4-yl)-7-(4-methyl-1,3-thiazol-2-yl)benzimidazol-5-yl]morpholine] to CCCc1nc2c(-c3nc(C)cs3)cc(N3CCOCC3)cc2n1-c1ccnc2c(F)ccc(F)c12 [Example 235, 4-[3-(5,8-difluoroquinolin-4-yl)-7-(4-methyl-1,3-thiazol-2-yl)-2-propylbenzimidazol-5-yl]morpholine], the IC50 falls from 56 nM to 17 nM (3.3-fold).

First: Cc1csc(-c2cc(N3CCOCC3)cc3c2nc(C)n3-c2ccnc3c(F)ccc(F)c23)n1 [Example 233, 4-[3-(5,8-difluoroquinolin-4-yl)-2-methyl-7-(4-methyl-1,3-thiazol-2-yl)benzimidazol-5-yl]morpholine]
Second: Cc1csc(-c2cc(N3CCOCC3)cc3c2nc(C)n3-c2ccnc3c(Cl)ccc(F)c23)n1 [Example 238, 4-[3-(8-chloro-5-fluoroquinolin-4-yl)-2-methyl-7-(4-methyl-1,3-thiazol-2-yl)benzimidazol-5-yl]morpholine]
The IC50 of the first is 2-fold higher: 8 nM for the first, 4 nM for the second. The second is the more potent here.

Going from Cc1csc(-c2cc(N3CCOCC3)cc3c2nc(C2CC2)n3-c2ccnc3c(Cl)cccc23)n1 [Example 234, 4-[3-(8-chloroquinolin-4-yl)-2-cyclopropyl-7-(4-methyl-1,3-thiazol-2-yl)benzimidazol-5-yl]morpholine] to Cc1csc(-c2cc(N3CCOCC3)cc3c2nc(C2CC2)n3-c2ccnc3c(Cl)ccc(F)c23)n1 [Example 243, 4-[3-(8-chloro-5-fluoroquinolin-4-yl)-2-cyclopropyl-7-(4-methyl-1,3-thiazol-2-yl)benzimidazol-5-yl]morpholine], the IC50 falls from 100 nM to 26 nM (3.8-fold). The second is the more potent here.

Compared with Cc1csc(-c2cc(N3CCOCC3)cc3c2nc(C2CC2)n3-c2ccnc3c(F)ccc(F)c23)n1 [Example 237, 4-[2-cyclopropyl-3-(5,8-difluoroquinolin-4-yl)-7-(4-methyl-1,3-thiazol-2-yl)benzimidazol-5-yl]morpholine], Fc1ccc(F)c2c(-n3c(C4CC4)nc4c(-c5nccs5)cc(N5CCOCC5)cc43)ccnc12 [Example 241, 4-[2-cyclopropyl-3-(5,8-difluoroquinolin-4-yl)-7-(1,3-thiazol-2-yl)benzimidazol-5-yl]morpholine] is 1.9-fold lower in IC50: 50 nM for the first, 27 nM for the second.

Going from CCCc1nc2c(-c3nccs3)cc(N3CCOCC3)cc2n1-c1ccnc2c(F)ccc(F)c12 [Example 239, 4-[3-(5,8-difluoroquinolin-4-yl)-2-propyl-7-(1,3-thiazol-2-yl)benzimidazol-5-yl]morpholine] to Cc1nc2c(-c3nccs3)cc(N3CCOCC3)cc2n1-c1ccnc2c(Cl)ccc(F)c12 [Example 240, 4-[3-(8-chloro-5-fluoroquinolin-4-yl)-2-methyl-7-(1,3-thiazol-2-yl)benzimidazol-5-yl]morpholine], the IC50 falls from 12 nM to 2 nM (6-fold).

First: Cc1nc2c(-c3nccs3)cc(N3CCOCC3)cc2n1-c1ccnc2c(Cl)cccc12 [Example 244, 4-[3-(8-chloroquinolin-4-yl)-2-methyl-7-(1,3-thiazol-2-yl)benzimidazol-5-yl]morpholine]
Second: CCc1nc2c(-c3cnc(C)[nH]3)cc(N3CCOCC3)cc2n1-c1ccnc2c(Cl)cccc12 [Example 245, 4-[3-(8-chloroquinolin-4-yl)-2-ethyl-7-(2-methyl-1H-imidazol-5-yl)benzimidazol-5-yl]morpholine]
The IC50 of the first is 2.3-fold lower: 9 nM for the first, 21 nM for the second. The first is the more potent here.
